These results are taken from BindingDB's records for doi:10.1002/1439-7633(20021004)3:10 (Aventis Pharmaceuticals, 2002).

Structures are written as SMILES. Where “and” joins values, the source holds several entries; their conditions need not be identical. Identical values can stand only once.

The test concerns the target T1, Alpha-1B adrenergic receptor (Rattus norvegicus, UniProt P15823).
T1 sequence (P15823 whole entry): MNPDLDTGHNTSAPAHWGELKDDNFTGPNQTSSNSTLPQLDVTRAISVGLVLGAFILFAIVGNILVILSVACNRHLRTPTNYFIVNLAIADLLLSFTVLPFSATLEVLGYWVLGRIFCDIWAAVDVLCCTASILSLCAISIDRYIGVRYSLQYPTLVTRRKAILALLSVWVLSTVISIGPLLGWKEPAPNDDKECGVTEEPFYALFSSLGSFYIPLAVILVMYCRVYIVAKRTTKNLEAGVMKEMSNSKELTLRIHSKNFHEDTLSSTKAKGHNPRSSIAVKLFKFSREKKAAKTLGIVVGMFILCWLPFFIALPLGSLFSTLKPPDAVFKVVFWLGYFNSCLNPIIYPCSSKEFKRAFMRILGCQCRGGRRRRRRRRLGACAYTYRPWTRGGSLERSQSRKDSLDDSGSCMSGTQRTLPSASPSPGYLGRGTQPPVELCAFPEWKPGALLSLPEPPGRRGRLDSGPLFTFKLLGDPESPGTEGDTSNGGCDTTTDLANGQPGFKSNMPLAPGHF
Nature of the test: Binding Assay. The method, then:
All rat alpha-1 adrenoceptor binding was performed by Hugo M. vargas, Karen M. Brooks and Lynn Laws-Ricker.
On to `OCC(CN1Cc2ccccc2C1)N1CCC(c2noc3cc(F)ccc23)CC1` (stereo not given) [Isoindoline, 9], for which the Ki (as a rule, the equilibrium dissociation constant of an inhibitor or competing ligand from its target) was 43 nM and 54.5 nM and 225 nM.
Consider `OCC(CN1Cc2ccc(F)cc2C1)N1CCC(c2noc3cc(F)ccc23)CC1` (stereo not given) [Isoindoline, 11], for which the affinity corresponds to a Ki of 92.5 nM.
`OCC(CN1Cc2cccc(F)c2C1)N1CCC(c2noc3cc(F)ccc23)CC1` (stereo not given) [Isoindoline, 12] registered a Ki of 232 nM.
Next, `OCC(CN1Cc2ccc(Cl)cc2C1)N1CCC(c2noc3cc(F)ccc23)CC1` (stereo not given) [Isoindoline, 13]: 11.9 nM; `Cc1cccc2c1CN(CC(CO)N1CCC(c3noc4cc(F)ccc34)CC1)C2` (stereo not given) [Isoindoline, 16]: 12.4 nM; `OCC(CN1Cc2ccc(C(F)(F)F)cc2C1)N1CCC(c2noc3cc(F)ccc23)CC1` (stereo not given) [Isoindoline, 17]: 26 nM.
With `COc1ccc2c(c1)CN(CC(CO)N1CCC(c3noc4cc(F)ccc34)CC1)C2` (stereo not given) [Isoindoline, 19] the figure was 20 nM; with `COc1cccc2c1CN(CC(CO)N1CCC(c3noc4cc(F)ccc34)CC1)C2` (stereo not given) [Isoindoline, 20], 17.5 nM; with `O=C1c2ccccc2CN1CC(CO)N1CCC(c2noc3cc(F)ccc23)CC1` (stereo not given) [Isoindoline, 23], 4.1 nM.
`OCC(CN1CCc2ccccc2C1)N1CCC(c2noc3cc(F)ccc23)CC1` (stereo not given) [Isoindoline, 26]: the Ki worked out at 19 nM.
